Literature values in patent US4096336A, “5,6-Benzo analogues or prostaglandin E” (Miles Laboratories, Inc., priority 1977, dated 1978).
Read-outs that look alike come from different tables or passages of the source.

How the values were obtained:
gastric secretion [1] = settings: man
gastric secretion [2] = settings: dogs
growth hormone = settings: rats
[3] = test system: smooth muscle of the vas deferens; settings: mammalian male reproductive system
tracheal smooth muscle = settings: in vitro preparations
[4] = test system: motor pathways in the central nervous system
blood platelets = settings: in vitro
thyroid activity = settings: mice
[5] = test system: ovarian progesterone secretion; settings: sheep
[6] = test system: adrenergic nervie endings; settings: guinea pig
adrenal glands = settings: hypophysectimized rats
[7] = test system: female reproductive system
luteolytic factors = settings: variety of mammals

Compound | gastric secretion (gastric secretion [2]) | effect on tracheal smooth muscle (tracheal smooth muscle) | transmission in motor pathways [4] | release of growth hormone (growth hormone) | thyroid activity (thyroid activity) | ovarian progesterone secretion [5] | transmitter release from adrenergic nerve endings [6] | steriodogenesis in the adrenal glands (adrenal glands) | further results
CCCCC[C@H](O)/C=C/[C@H]1C=CC(=O)[C@@H]1CCCCCCC(=O)O [PGA1] | inhibit gastric secretion | – | – | – | – | – | – | – | gastric secretion (gastric secretion [1]): exhibits similar activity in man; synthesis of growth hormone (growth hormone): increased synthesis of that hormone
CCCCC[C@H](O)/C=C/[C@H]1[C@H](O)CC(=O)[C@@H]1CCCCCCC(=O)O [PGE1, prostaglandin E1] | inhibit gastric secretion | relax | retards | increase release of growth hormone | increase thyroid activity | inhibit ovarian progesterone secretion | inhibit transmitter release | stimulate steriodogenesis in the adrenal glands | effect on smooth muscle of the vas deferens [3]: contracts the smooth muscle of the vas deferens; thrombogenesis (blood platelets): inhibits thrombogenesis in vitro
CCCCC[C@H](O)/C=C/[C@H]1[C@H](O)CC(=O)[C@@H]1C/C=C\CCCC(=O)O [PGE2] | inhibit gastric secretion | relax | – | increase release of growth hormone | increase thyroid activity | – | inhibit transmitter release | stimulate steriodogenesis in the adrenal glands | oxytocic effects ([7]; inducing labor): exerts potent oxytocic effects in inducing labor
CCCCC[C@H](O)/C=C/[C@@H]1[C@@H](CCCCCCC(=O)O)[C@@H](O)C[C@H]1O [PGF1α] | – | – | – | – | increase thyroid activity | inhibit ovarian progesterone secretion | – | stimulate steriodogenesis in the adrenal glands | luteolytic action (luteolytic factors): act as luteolytic factors
CCCCC[C@H](O)/C=C/[C@@H]1[C@@H](CCCCCCC(=O)O)[C@H](O)C[C@H]1O [PGF1β] | – | – | – | – | increase thyroid activity | – | – | – | –
CCCCC[C@H](O)/C=C/[C@@H]1[C@@H](C/C=C\CCCC(=O)O)[C@@H](O)C[C@H]1O [PGF2α] | – | contracts the smooth muscle | facilitates transmission in motor pathways in the central nervous system | – | – | – | – | – | induction of spontaneous abortions ([7]; early pregnancy): induces spontaneous abortions in early pregnancy; effect on fertility / gestation ([7]; female reproductive system): has contragestational effects
